According to patent US11780893B2, “Kv1.3 blockers” (Zealand Pharma A/S, priority 2019, dated 2023):
Bridge positions count the residues as written; N and C are the ends. Square brackets hold non-standard residues; d marks the D form. Peptide text beside a SMILES is read from it. Nle = CCCC[C@H](N)C(=O)O

Biological target: T1, human Kv1.3 voltage-gated K+ channel (Homo sapiens, UniProt P22001)
T1 construct: host or cells: CHO-DUKX
Assay: cell-based
Details: inhibition of thallium flux, CHO-DUKX cells with human Kv1.3; read-out: IC50

T1 sequence (P22001 whole entry): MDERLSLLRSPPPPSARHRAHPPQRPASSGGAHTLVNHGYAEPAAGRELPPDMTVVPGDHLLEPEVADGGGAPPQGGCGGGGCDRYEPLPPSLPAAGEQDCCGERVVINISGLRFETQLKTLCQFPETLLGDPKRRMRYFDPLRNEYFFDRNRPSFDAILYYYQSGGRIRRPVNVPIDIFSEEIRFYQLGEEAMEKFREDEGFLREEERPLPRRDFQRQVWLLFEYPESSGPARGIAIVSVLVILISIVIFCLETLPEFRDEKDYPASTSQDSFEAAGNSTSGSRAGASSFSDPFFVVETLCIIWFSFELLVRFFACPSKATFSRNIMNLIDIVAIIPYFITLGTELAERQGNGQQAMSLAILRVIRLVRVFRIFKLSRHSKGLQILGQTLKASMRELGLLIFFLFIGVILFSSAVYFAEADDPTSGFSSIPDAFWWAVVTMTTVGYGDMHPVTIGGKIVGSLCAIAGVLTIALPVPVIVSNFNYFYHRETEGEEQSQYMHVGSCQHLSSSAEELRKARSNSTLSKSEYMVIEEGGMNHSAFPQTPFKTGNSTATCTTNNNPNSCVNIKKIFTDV

`CCCC[C@H](NC(=O)[C@@H]1CCCN1)C(=O)N[C@@H](CCC(=O)O)C(=O)N[C@@H](CCCC)C(=O)N[C@@H](CCCNC(=N)N)C(=O)N[C@H]1CSSC[C@@H]2NC(=O)[C@H](CCCCN)NC(=O)CNC(=O)[C@H](Cc3ccccc3)NC(=O)[C@H]([C@@H](C)CC)NC(=O)[C@H](CO)NC(=O)CNC(=O)[C@H]([C@@H](C)CC)NC(=O)[C@H](C)NC(=O)[C@H](C)NC(=O)[C@H](CC(C)C)NC(=O)[C@@H]3CSSC[C@@H](C(=O)N[C@@H](Cc4ccc(O)cc4)C(=O)N4CCC[C@H]4C(=O)N[C@@H](CCCNC(=N)N)C(=O)N[C@@H](Cc4c[nH]cn4)C(=O)O)NC(=O)[C@H](CCCCN)NC(=O)[C@H](CSSC[C@H](NC(=O)[C@H](CCC(=O)O)NC(=O)[C@H](C(C)C)NC(=O)[C@H](CO)NC(=O)[C@H](C)NC(=O)[C@H](CO)NC1=O)C(=O)N[C@@H](CCCCN)C(=O)N[C@@H](CCC(N)=O)C(=O)N[C@@H](CCCCN)C(=O)N3)NC(=O)[C@H](CCCCN)NC(=O)[C@H](CCCCN)NC(=O)[C@H](CC(N)=O)NC(=O)[C@H](CCCC)NC2=O` [Compound 125] (H-P[Nle]E[Nle]RCSASVECKQKCLAAIGSIFGKC[Nle]NKKCKCYPRH-OH; disulfide 6-27, 12-32, 16-34) was tested, and the IC50 was 0.383 nM.
In the case of `CCCC[C@H](NC(=O)[C@@H]1CCCN1)C(=O)N[C@@H](CCC(=O)O)C(=O)N[C@@H](CCCC)C(=O)N[C@@H](CCCNC(=N)N)C(=O)N[C@H]1CSSC[C@@H]2NC(=O)[C@H](CCCCN)NC(=O)CNC(=O)[C@H](Cc3ccccc3)NC(=O)[C@H]([C@@H](C)CC)NC(=O)[C@H](CO)NC(=O)CNC(=O)[C@H]([C@@H](C)CC)NC(=O)[C@H](C)NC(=O)[C@H](C)NC(=O)[C@H](CC(C)C)NC(=O)[C@@H]3CSSC[C@@H](C(=O)N[C@@H](Cc4ccc(O)cc4)C(=O)N4CCC[C@H]4C(=O)N[C@@H](CCCNC(=N)N)C(=O)N[C@@H](CCC(=O)O)C(=O)O)NC(=O)[C@H](CCCCN)NC(=O)[C@H](CSSC[C@H](NC(=O)[C@H](CCC(=O)O)NC(=O)[C@H](C(C)C)NC(=O)[C@H](CO)NC(=O)[C@H](C)NC(=O)[C@H](CO)NC1=O)C(=O)N[C@@H](CCCCN)C(=O)N[C@@H](CCC(N)=O)C(=O)N[C@@H](CCCCN)C(=O)N3)NC(=O)[C@H](CCCCN)NC(=O)[C@H](CCCCN)NC(=O)[C@H](CC(N)=O)NC(=O)[C@H](CCCC)NC2=O` [Compound 126] (H-P[Nle]E[Nle]RCSASVECKQKCLAAIGSIFGKC[Nle]NKKCKCYPRE-OH; disulfide 6-27, 12-32, 16-34), the IC50 is reported as 6.49 nM.
Work on `CCCC[C@H](NC(=O)[C@@H]1CCCN1)C(=O)N[C@@H](CCC(=O)O)C(=O)N[C@@H](CCCC)C(=O)N[C@@H](CCCNC(=N)N)C(=O)N[C@H]1CSSC[C@@H]2NC(=O)[C@H](CCCCN)NC(=O)CNC(=O)[C@H](Cc3ccccc3)NC(=O)[C@H]([C@@H](C)CC)NC(=O)[C@H](CO)NC(=O)CNC(=O)[C@H]([C@@H](C)CC)NC(=O)[C@H](C)NC(=O)[C@H](C)NC(=O)[C@H](CC(C)C)NC(=O)[C@@H]3CSSC[C@@H](C(=O)N[C@@H](Cc4ccc(O)cc4)C(=O)N4CCC[C@H]4C(=O)N[C@@H](CCCNC(=N)N)C(=O)N[C@@H](CCCCN)C(=O)N[C@@H](CO)C(=O)O)NC(=O)[C@H](CCCCN)NC(=O)[C@H](CSSC[C@H](NC(=O)[C@H](CCC(=O)O)NC(=O)[C@H](C(C)C)NC(=O)[C@H](CO)NC(=O)[C@H](C)NC(=O)[C@H](CO)NC1=O)C(=O)N[C@@H](CCCCN)C(=O)N[C@@H](CCC(N)=O)C(=O)N[C@@H](CCCCN)C(=O)N3)NC(=O)[C@H](CCCCN)NC(=O)[C@H](CCCCN)NC(=O)[C@H](CC(N)=O)NC(=O)[C@H](CCCC)NC2=O` [Compound 127] (H-P[Nle]E[Nle]RCSASVECKQKCLAAIGSIFGKC[Nle]NKKCKCYPRKS-OH; disulfide 6-27, 12-32, 16-34) yielded an IC50 of 0.562 nM.
With `CCCC[C@H](NC(=O)[C@@H]1CCCN1)C(=O)N[C@@H](CCC(=O)O)C(=O)N[C@@H](CCCC)C(=O)N[C@@H](CCCNC(=N)N)C(=O)N[C@H]1CSSC[C@@H]2NC(=O)[C@H](CCCCN)NC(=O)CNC(=O)[C@H](Cc3ccccc3)NC(=O)[C@H]([C@@H](C)CC)NC(=O)[C@H](CO)NC(=O)CNC(=O)[C@H]([C@@H](C)CC)NC(=O)[C@H](C)NC(=O)[C@H](C)NC(=O)[C@H](CC(C)C)NC(=O)[C@@H]3CSSC[C@@H](C(=O)N[C@@H](Cc4ccc(O)cc4)C(=O)N4CCC[C@H]4C(=O)N[C@@H](CCCNC(=N)N)C(=O)N[C@@H](Cc4ccccc4)C(=O)N[C@@H](CCC(=O)O)C(=O)O)NC(=O)[C@H](CCCCN)NC(=O)[C@H](CSSC[C@H](NC(=O)[C@H](CCC(=O)O)NC(=O)[C@H](C(C)C)NC(=O)[C@H](CO)NC(=O)[C@H](C)NC(=O)[C@H](CO)NC1=O)C(=O)N[C@@H](CCCCN)C(=O)N[C@@H](CCC(N)=O)C(=O)N[C@@H](CCCCN)C(=O)N3)NC(=O)[C@H](CCCCN)NC(=O)[C@H](CCCCN)NC(=O)[C@H](CC(N)=O)NC(=O)[C@H](CCCC)NC2=O` [Compound 128] (H-P[Nle]E[Nle]RCSASVECKQKCLAAIGSIFGKC[Nle]NKKCKCYPRFE-OH; disulfide 6-27, 12-32, 16-34) the IC50 was 7.18 nM.
Compound `CCCC[C@H](NC(=O)[C@@H]1CCCN1)C(=O)N[C@@H](CCC(=O)O)C(=O)N[C@@H](CCCC)C(=O)N[C@@H](CCCNC(=N)N)C(=O)N[C@H]1CSSC[C@@H]2NC(=O)[C@H](CCCCN)NC(=O)CNC(=O)[C@H](Cc3ccccc3)NC(=O)[C@H]([C@@H](C)CC)NC(=O)[C@H](CO)NC(=O)CNC(=O)[C@H]([C@@H](C)CC)NC(=O)[C@H](C)NC(=O)[C@H](C)NC(=O)[C@H](CC(C)C)NC(=O)[C@@H]3CSSC[C@@H](C(=O)N[C@@H](Cc4ccc(O)cc4)C(=O)N4CCC[C@H]4C(=O)N[C@@H](CCCNC(=N)N)C(=O)N[C@@H](Cc4c[nH]cn4)C(=O)N[C@@H](CCCNC(=N)N)C(=O)O)NC(=O)[C@H](CCCCN)NC(=O)[C@H](CSSC[C@H](NC(=O)[C@H](CCC(=O)O)NC(=O)[C@H](C(C)C)NC(=O)[C@H](CO)NC(=O)[C@H](C)NC(=O)[C@H](CO)NC1=O)C(=O)N[C@@H](CCCCN)C(=O)N[C@@H](CCC(N)=O)C(=O)N[C@@H](CCCCN)C(=O)N3)NC(=O)[C@H](CCCCN)NC(=O)[C@H](CCCCN)NC(=O)[C@H](CC(N)=O)NC(=O)[C@H](CCCC)NC2=O` [Compound 129] (H-P[Nle]E[Nle]RCSASVECKQKCLAAIGSIFGKC[Nle]NKKCKCYPRHR-OH; disulfide 6-27, 12-32, 16-34) has an IC50 of 0.143 nM.
`CCCC[C@H](NC(=O)[C@@H]1CCCN1)C(=O)N[C@@H](CCC(=O)O)C(=O)N[C@@H](CCCC)C(=O)N[C@@H](CCCNC(=N)N)C(=O)N[C@H]1CSSC[C@@H]2NC(=O)[C@H](CCCCN)NC(=O)CNC(=O)[C@H](Cc3ccccc3)NC(=O)[C@H]([C@@H](C)CC)NC(=O)[C@H](CO)NC(=O)CNC(=O)[C@H]([C@@H](C)CC)NC(=O)[C@H](C)NC(=O)[C@H](C)NC(=O)[C@H](CC(C)C)NC(=O)[C@@H]3CSSC[C@@H](C(=O)N[C@@H](Cc4ccc(O)cc4)C(=O)N4CCC[C@H]4C(=O)N[C@@H](CCCNC(=N)N)C(=O)N[C@@H](C)C(=O)N[C@@H](CCCCN)C(=O)O)NC(=O)[C@H](CCCCN)NC(=O)[C@H](CSSC[C@H](NC(=O)[C@H](CCC(=O)O)NC(=O)[C@H](C(C)C)NC(=O)[C@H](CO)NC(=O)[C@H](C)NC(=O)[C@H](CO)NC1=O)C(=O)N[C@@H](CCCCN)C(=O)N[C@@H](CCC(N)=O)C(=O)N[C@@H](CCCCN)C(=O)N3)NC(=O)[C@H](CCCCN)NC(=O)[C@H](CCCCN)NC(=O)[C@H](CC(N)=O)NC(=O)[C@H](CCCC)NC2=O` [Compound 130] (H-P[Nle]E[Nle]RCSASVECKQKCLAAIGSIFGKC[Nle]NKKCKCYPRAK-OH; disulfide 6-27, 12-32, 16-34) showed an IC50 of 0.529 nM.
For `CCCC[C@H](NC(=O)[C@@H]1CCCN1)C(=O)N[C@@H](CCC(=O)O)C(=O)N[C@@H](CCCC)C(=O)N[C@@H](CCCNC(=N)N)C(=O)N[C@H]1CSSC[C@@H]2NC(=O)[C@H](CCCCN)NC(=O)CNC(=O)[C@H](Cc3ccccc3)NC(=O)[C@H]([C@@H](C)CC)NC(=O)[C@H](CO)NC(=O)CNC(=O)[C@H]([C@@H](C)CC)NC(=O)[C@H](C)NC(=O)[C@H](C)NC(=O)[C@H](CC(C)C)NC(=O)[C@@H]3CSSC[C@@H](C(=O)N[C@@H](Cc4ccc(O)cc4)C(=O)N4CCC[C@H]4C(=O)N[C@@H](CCCNC(=N)N)C(=O)N[C@@H](CO)C(=O)N[C@H](C(=O)O)[C@@H](C)O)NC(=O)[C@H](CCCCN)NC(=O)[C@H](CSSC[C@H](NC(=O)[C@H](CCC(=O)O)NC(=O)[C@H](C(C)C)NC(=O)[C@H](CO)NC(=O)[C@H](C)NC(=O)[C@H](CO)NC1=O)C(=O)N[C@@H](CCCCN)C(=O)N[C@@H](CCC(N)=O)C(=O)N[C@@H](CCCCN)C(=O)N3)NC(=O)[C@H](CCCCN)NC(=O)[C@H](CCCCN)NC(=O)[C@H](CC(N)=O)NC(=O)[C@H](CCCC)NC2=O` [Compound 133] (H-P[Nle]E[Nle]RCSASVECKQKCLAAIGSIFGKC[Nle]NKKCKCYPRST-OH; disulfide 6-27, 12-32, 16-34), the IC50 was 1.1 nM.
Work on `CCCC[C@H](NC(=O)[C@@H]1CCCN1)C(=O)N[C@@H](CCC(=O)O)C(=O)N[C@@H](CCCC)C(=O)N[C@@H](CCCNC(=N)N)C(=O)N[C@H]1CSSC[C@@H]2NC(=O)[C@H](CCCCN)NC(=O)CNC(=O)[C@H](Cc3ccccc3)NC(=O)[C@H]([C@@H](C)CC)NC(=O)[C@H](CO)NC(=O)CNC(=O)[C@H]([C@@H](C)CC)NC(=O)[C@H](C)NC(=O)[C@H](C)NC(=O)[C@H](CC(C)C)NC(=O)[C@@H]3CSSC[C@@H](C(=O)N[C@@H](Cc4ccc(O)cc4)C(=O)N4CCC[C@H]4C(=O)N[C@@H](CCCNC(=N)N)C(=O)N[C@@H](CCCNC(=N)N)C(=O)N[C@@H](Cc4ccc(O)cc4)C(=O)O)NC(=O)[C@H](CCCCN)NC(=O)[C@H](CSSC[C@H](NC(=O)[C@H](CCC(=O)O)NC(=O)[C@H](C(C)C)NC(=O)[C@H](CO)NC(=O)[C@H](C)NC(=O)[C@H](CO)NC1=O)C(=O)N[C@@H](CCCCN)C(=O)N[C@@H](CCC(N)=O)C(=O)N[C@@H](CCCCN)C(=O)N3)NC(=O)[C@H](CCCCN)NC(=O)[C@H](CCCCN)NC(=O)[C@H](CC(N)=O)NC(=O)[C@H](CCCC)NC2=O` [Compound 134] (H-P[Nle]E[Nle]RCSASVECKQKCLAAIGSIFGKC[Nle]NKKCKCYPRRY-OH; disulfide 6-27, 12-32, 16-34) yielded an IC50 of 0.21 nM.
